Data: PubChem BioAssay (NCI)
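Growth conditions: 96-well plates. Treatment: test compound, 48 hours, 5 concentrations. Analysis: linear interpolation between bracketing concentrations; unreached endpoints set to highest concentration. GI50 is the concentration that inhibits growth by half. TGI marks complete inhibition of growth.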

Assays:
Test in all cases: growth of human tumour cells (NCI), 48 h
A549 NSCLC = tested on: A549 NSCLC
COLO 205 colon = tested on: COLO 205 colon
HCT-116 colon = tested on: HCT-116 colon
HCT-15 colon = tested on: HCT-15 colon
HT29 colon = tested on: HT29 colon
MALME-3M melanoma = tested on: MALME-3M melanoma
PC-3 prostate = tested on: PC-3 prostate
SK-MEL-5 melanoma = tested on: SK-MEL-5 melanoma
UACC-257 melanoma = tested on: UACC-257 melanoma
UACC-62 melanoma = tested on: UACC-62 melanoma

| Structure (SMILES) | GI50 (A549 NSCLC) [µM] | TGI (A549 NSCLC) [µM] | GI50 (COLO 205 colon) [µM] | TGI (COLO 205 colon) [µM] | GI50 (HCT-116 colon) [µM] | TGI (HCT-116 colon) [µM] | GI50 (HCT-15 colon) [µM] | TGI (HCT-15 colon) [µM] | GI50 (HT29 colon) [µM] | TGI (HT29 colon) [µM] | GI50 (MALME-3M melanoma) [µM] | TGI (MALME-3M melanoma) [µM] | GI50 (PC-3 prostate) [µM] | TGI (PC-3 prostate) [µM] | GI50 (SK-MEL-5 melanoma) [µM] | TGI (SK-MEL-5 melanoma) [µM] | GI50 (UACC-257 melanoma) [µM] | TGI (UACC-257 melanoma) [µM] | GI50 (UACC-62 melanoma) [µM] | TGI (UACC-62 melanoma) [µM] |
| --- | --- | --- | --- | --- | --- | --- | --- | --- | --- | --- | --- | --- | --- | --- | --- | --- | --- | --- | --- | --- |
| Cn1cc(C2=C(c3cccc(N)c3)C(=O)NC2=O)c2ccccc21 | 14.1 | > 25 | 10.8 | > 25 | 7.94 | > 25 | 12.8 | > 25 | 13.1 | > 25 | > 25 | > 25 | 14.8 | > 25 | 9.66 | > 25 | > 25 | > 25 | 12.6 | > 25 |
| O=C1C2C(C(=O)[N]1[Hg][c]1cccs1)C1(Cl)C(Cl)=C(Cl)C2(Cl)C1(Cl)Cl (stereo not given) | 5.94 | 16.7 | 1.22 | 2.65 | 1.25 | 2.54 | 0.821 | 2.27 | 0.649 | 3.57 | 1.22 | 2.79 | 1.72 | 4.18 | 1.55 | 3.06 | 1.28 | 2.83 | 1.27 | 2.89 |
| CC/C(=C(/c1ccc(OCCN(C)C)cc1)c1ccc(OC(=O)CCC(=O)c2c(C)[nH]c(/C=C3\N=C(c4ccc[nH]4)C=C3OC)c2C)cc1)c1ccccc1 | 2.63 | 10.6 | 1.9 | 7.24 | 0.792 | 3.26 | 0.934 | 4.48 | 0.438 | 11.1 | 2.68 | 6.35 | 1.78 | 17.1 | 1.31 | 2.62 | 3.38 | 14.7 | 1.81 | 3.78 |
| COc1cc(-c2nc3sccn3c2-c2ccnc(NCCNS(=O)(=O)c3ccc(Cl)cc3)n2)ccc1F | 3.86 | > 100 | 3.48 | > 100 | 3.56 | > 100 | 3.33 | > 100 | 4.28 | > 100 | 3.35 | > 100 | 0.577 | > 100 | 1.87 | 4.19 | 4.47 | > 100 | 1.39 | 5.2 |
| COC(=O)C1=C(C)NC(C)=C(C(=O)OC)C1/C=C(\Cl)c1ccc(Cl)c(Cl)c1 | 11.9 | 24.4 | 17.9 | 43.2 | 12.2 | 24.6 | 12.3 | 26.9 | 4.51 | 18.5 | 17.5 | 35.9 | 10.8 | 23.1 | 15.2 | 28.5 | 18 | 36.1 | 6.42 | 20.3 |
| O=c1c2c3c(sc2n2c(-c4cc(-c5ccccc5)no4)nnc2n1Cc1ccccc1)CCCC3 | 10.5 | > 86.5 | 1.23 | > 40.7 | 10.3 | 24.5 | 11.6 | > 83.4 | 29.2 | > 100 | 32.1 | 97.3 | 9.19 | > 100 | 9.77 | 22.9 | 23.9 | > 74 | 17.1 | 44 |
| CN(Cc1ccc(Cl)cc1)c1ccc(CO)c(Cl)c1 | 3.9 | 17.8 | 5.95 | 18.1 | 0.445 | 8.75 | 5.42 | 39.5 | 6.7 | 22.6 | 13.4 | 29.2 | 12.8 | 31 | 5.42 | 17.3 | 0.515 | 2.45 | 0.33 | 2.2 |
| CCOc1ccccc1NC(=O)c1cc2ccccc2cc1O | 3.19 | 11.6 | 12.7 | 26.3 | 2.88 | 8.02 | 3.27 | 15.6 | 8.35 | 25.4 | 2.3 | 10.2 | 2.73 | 10.1 | 1.82 | 3.7 | 2.23 | 5.98 | 2.18 | 9.55 |
| CCOC(=O)/C(=N\OC)C(O)C(F)(F)F (stereo not given) | – | > 100 | – | > 100 | – | > 100 | – | > 100 | – | > 100 | – | > 100 | – | > 100 | – | > 100 | – | > 100 | – | > 100 |
| N=C(N)c1ccc(OCCOCCOc2ccc(C(=N)N)cc2)cc1 | 40.1 | > 100 | 50.1 | > 100 | > 100 | > 100 | 84.1 | > 100 | 78.3 | > 100 | 39.5 | > 100 | > 100 | > 100 | 33.1 | > 100 | 38.3 | > 100 | > 100 | > 100 |
| COc1ccc2c(c1)=C(C=C1C=CN(O)C=C1)C(=O)N=2 | 29.8 | > 100 | 3.84 | 32.8 | 28.9 | > 100 | 25 | > 75.9 | 17.1 | > 66.8 | 24.3 | 55.9 | 29.5 | > 100 | 22.8 | 63.9 | 44.7 | > 100 | 26.3 | 86.1 |
| N#Cc1ncc(-c2ccc(C(F)(F)F)cc2)c(NCc2cc(C(F)(F)F)cc(C(F)(F)F)c2)n1 | 3.11 | 21.1 | 2.24 | 4.57 | 2.93 | > 100 | 3.52 | > 100 | 3.27 | > 100 | 2.98 | 8.89 | 2.42 | 8.48 | 3.91 | 15 | 3.06 | 9.92 | 3.93 | > 100 |
| CCC1C(=O)OCc2c1cc1n(c2=O)Cc2cc3ccccc3nc2-1 (stereo not given) | – | > 100 | – | > 100 | – | > 100 | – | > 100 | – | > 100 | – | > 100 | – | > 100 | – | 32.1 | – | > 100 | – | > 37.6 |
